From patent US7592330B2, “Methods and compositions for preserving the viability of photoreceptor cells” (Massachusetts Eye and Ear Infirmary, priority 2005, dated 2009)

Experiments:
photoreceptor cells [1] = type: in vivo, Brown Norway rats
Procedure: Methods. Retinal detachments were created in the eyes of Brown Norway rats by injecting 10% hyaluronic acid into the subretinal space using a transvitreal approach. FK506 (tacrolimus) (5 mg/kg/day) diluted in PBS was administered by gastric gavage one day prior to the induction of retinal detachment, on the day of the induction, and for the two following days (n=6). Control animals received the same volume of PBS (0.5 cc) by gastric gavage one day prior to the induction of retinal detachment, on the day of the induction, and for the two following days (n=3). […] All eyes were enucleated 72 hours after retinal detachment induction and embedded in paraffin. Fourteen micrometer sections were subsequently obtained. DNA fragmentation was examined using terminal dUTP-biotin nick end-labeling (TUNEL). A masked observer counted TUNEL-positive cells and obtained an average from three adjacent standardized fields in two serial sections.

caspase 3 = biological target: T1, caspase 3 (Homo sapiens, UniProt P42574); conditions: cited from earlier work
T1 sequence (P42574 29-175 limits assumed): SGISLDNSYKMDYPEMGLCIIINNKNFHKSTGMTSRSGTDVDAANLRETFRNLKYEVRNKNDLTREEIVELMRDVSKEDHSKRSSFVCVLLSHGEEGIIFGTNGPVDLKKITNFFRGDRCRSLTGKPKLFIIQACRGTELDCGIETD
T1 sequence (P42574 176-277 limits assumed): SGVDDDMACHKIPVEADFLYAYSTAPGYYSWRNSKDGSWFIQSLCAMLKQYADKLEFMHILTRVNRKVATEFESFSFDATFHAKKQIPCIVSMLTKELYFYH

caspase 1 = biological target: T2, caspase 1 (Homo sapiens, UniProt P29466); conditions: cited from earlier work
T2 sequence (P29466 120-297 limits assumed): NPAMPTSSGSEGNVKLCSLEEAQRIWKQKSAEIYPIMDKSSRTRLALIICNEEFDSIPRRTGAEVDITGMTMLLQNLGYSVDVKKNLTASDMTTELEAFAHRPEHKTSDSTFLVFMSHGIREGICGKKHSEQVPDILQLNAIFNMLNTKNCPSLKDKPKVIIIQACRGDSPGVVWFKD
T2 sequence (P29466 317-404 limits assumed): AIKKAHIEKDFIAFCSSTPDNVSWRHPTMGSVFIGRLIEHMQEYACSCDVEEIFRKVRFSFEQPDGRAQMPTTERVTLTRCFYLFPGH

caspase 4 = biological target: T3, caspase 4 (Homo sapiens, UniProt P49662); conditions: cited from earlier work
T3 sequence (P49662 81-270 limits assumed): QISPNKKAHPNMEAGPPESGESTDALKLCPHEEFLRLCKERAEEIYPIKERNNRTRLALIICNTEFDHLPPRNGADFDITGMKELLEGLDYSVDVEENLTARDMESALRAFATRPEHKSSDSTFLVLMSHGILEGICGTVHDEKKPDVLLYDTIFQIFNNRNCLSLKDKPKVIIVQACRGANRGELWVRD
T3 sequence (P49662 290-377 limits assumed): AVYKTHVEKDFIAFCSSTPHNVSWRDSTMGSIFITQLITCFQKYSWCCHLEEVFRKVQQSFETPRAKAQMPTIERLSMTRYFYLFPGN

caspase 7 = biological target: T4, caspase 7 (Homo sapiens, UniProt P55210); conditions: cited from earlier work
T4 sequence (P55210 24-198 limits assumed): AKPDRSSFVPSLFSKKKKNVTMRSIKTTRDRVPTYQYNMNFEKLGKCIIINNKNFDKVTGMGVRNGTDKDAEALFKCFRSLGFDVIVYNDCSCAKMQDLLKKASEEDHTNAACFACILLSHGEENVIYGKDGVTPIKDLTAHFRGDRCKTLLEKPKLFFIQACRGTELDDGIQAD
T4 sequence (P55210 207-303 limits assumed): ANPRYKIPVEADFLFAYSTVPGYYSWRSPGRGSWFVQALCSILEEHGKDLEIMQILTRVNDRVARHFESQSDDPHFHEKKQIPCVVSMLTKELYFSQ

photoreceptor cells [2] = test: Caspase inhibitor injected into region of retinal detachment, TUNEL staining (Example 2); type: in vivo, Brown-Norway rats; conditions: 25 μl of 0.2, 2 or 20 mM inhibitor in DMSO into region of detachment; 72 hours; relative to untreated eyes
Procedure: The caspase inhibitor, Z-Val-Ala-Asp-fluoromethylketone is dissolved in dimethyl sulfoxide (DMSO) to give the final concentrations of 0.2 mM, 2 mM, and 20 mM. After creating the retinotomy with the subretinal injector, a small amount of Healon® sodium hyaluronate is injected in the subretinal space so as to elevate the retina. After retinal elevation, a Hamilton syringe with a 33 gauge needle is introduced through the retinotomy site, and 25 μl of inhibitor is injected into the region of detachment. About 25 minutes later, Healon® sodium hyaluronate is injected, via the same retinotomy site, to maintain the retinal detachment. Healon® sodium hyaluronate is injected until resistance is detected.
Only the right eyes of rats are used in evaluating the role of the Z-VAD-FMK inhibitor. The left eyes serve as the controls. Five animals are used for each concentration of inhibitor (namely, no inhibitor, 0.2 mM inhibitor, 2 mM inhibitor, and 20 mM inhibitor). For the no inhibitor control, 25 μl of DMSO is injected into the region of detachment followed by Healon® sodium hyaluronate.
After 72 hours, the eyes are enucleated and the rats euthanized. The enucleated eyes are paraffin embedded as described in Example 1. Then, 6 μm sections from the posterior segments are analyzed by TUNEL staining as described in Example 1.

[3] = test system: calpain-mediated cleavage of calcineurin; test: ALLM treatment in experimental retinal detachment, Western blot of calcineurin cleavage (Example 4, Experiment #2); type: in vivo, Brown Norway rats
From the text: The following experiments determine that calcineurin is cleaved after retinal detachment and that pharmacologic inhibition of calpain will prevent this activation. In particular, retinas of rats with experimental retinal detachment will be examined for biochemical evidence of calcineurin activation. These experiments also determine that calcineurin cleavage is mediated by the calcium-dependent enzyme, calpain. […] Finally, they determine that calcineurin inhibitors like FK506 have a neuroprotective effect on photoreceptor cells death.
One day prior to surgical induction, animals are started on a treatment of ALLM (20 mg/kg/day, intraperitoneal administration), a calpain inhibitor, or vehicle control, and administration continues throughout the study. For this experiment, the animals are followed for three or five days after retinal detachment. At the end of this period, animals are sacrificed and their eyes are removed for either protein isolation or immunohistochemistry. Fellow eyes are used as controls. Western blot analysis is used to determine levels of retinal calcineurin and calcineurin cleavage products. Six animals per group are used.
Retinal Detachment Model. […]

With `C=CC[C@@H]1/C=C(\C)C[C@H](C)C[C@H](OC)[C@H]2O[C@@](O)(C(=O)C(=O)N3CCCC[C@H]3C(=O)O[C@H](/C(C)=C/[C@@H]3CC[C@@H](O)[C@H](OC)C3)[C@H](C)[C@@H](O)CC1=O)[C@H](C)C[C@@H]2OC` [FK506, FK506 (tacrolimus)] the “TUNEL-positive cells (mean±SD)” value (photoreceptor cells [1]; FK506 5 mg/kg/day by gastric gavage, from one day prior to detachment, eyes enucleated 72 hours after retinal detachment, n=6) was 130.13±54.3, the “morphological signs of toxicity in the eyes” value (photoreceptor cells [1]; rat, in vivo, 5 mg/kg/day) was “no morphological signs of toxicity” and the “reduction in the mean number of TUNEL-positive cells” value (photoreceptor cells [1]; treated group vs PBS control, 72 hours after detachment, p<0.05) was 35%.
For “Ac-Tyr-Val-Ala-Asp-aldehyde (SEQ ID NO: 7)”, the Ki (caspase 3) is given as ≥ 50000 nM, the Ki (caspase 1) is given as 10 nM and the Ki (caspase 4) is given as 10 nM. For the same molecule, the Ki (caspase 7) was ≥ 50000 nM.
For Z-Val-Ala-Asp-fluoromethylketone, the “inhibition of caspase 3” value (caspase 3) is given as “inhibits”, the “inhibition of caspase 1” value (caspase 1) is given as “inhibits” and the “inhibition of caspase 4” value (caspase 4) is given as “inhibits”. The “inhibition of caspase 7” value (caspase 7) was “inhibits” and the “TUNEL-positive photoreceptor cells in the region of retinal detachment” value (photoreceptor cells [2]) was “fewer photoreceptor cells in the region of retinal detachment that stain TUNEL-positive”.
With Ac-Leu-Leu-Met-H (aldehyde) [ALLM] the “levels of retinal calcineurin and calcineurin cleavage products” value ([3]; ALLM 20 mg/kg/day intraperitoneal, three or five days after retinal detachment) was “inhibition of the calpain-mediated cleavage pathway” and the photoreceptor cell death ([3]; treatment with ALLM in experimental retinal detachment) was “protect photoreceptor cells from death”.
